The values that follow come from patent publication US9856221B2, “Salt of ivabradine and process for the preparation thereof” (LES LABORATOIRES SERVIER, priority 2014, dated 2018).

“And” between values parts separate entries of the source, which are not always exact repeats. Identical values can stand only once. Counter-ions that a name gives are not always drawn.

Data set [1] is described as follows: Dissolution test (paddle apparatus, Ph. Eur. 2.9.3), release of active ingredient. The format is physicochemical. The conditions noted are these: for % of active ingredient released (individual units B1-B6) / % of active ingredient released, Mean: 0.01 N HCl pH~2.1, 37°C, paddle 50 rpm; for % of active ingredient released (individual units B1-B6): 500 mL; for % of active ingredient released, Mean: mean of 6 units. The method, then:
Dissolution Test Operating Conditions for Dissolution Paddle dissolution apparatus described in the European pharmacopoeia (2.9.3) Dissolution medium: 0.01 N hydrochloric acid (pH˜2.1) degassed Temperature of the medium: 37° C.±0.5° C. Volume of the medium: 500 mL±5 mL Speed of rotation of the blades: 50 rpm±2 rpm Standard sampling time: 0, 15, 30 and 45 min Added sampling times: 1, 2, 4, 6, 8, 12 and 16 h Volume removed: 1 mL Replacement of the volume removed: no Number of units tested: 6 Number of units per flask: 1

A short description of data set [2]: In vitro release of ivabradine hydrochloride (immediate-release formulation). The format is physicochemical.

For `COc1cc2c(cc1OC)CC(=O)N(CCCN(C)C[C@H]1Cc3cc(OC)c(OC)cc31)CC2` [ivabradine hemipamoate], in data set [1] (after approximately 6 hours, in vitro dissolution test), the ivabradine hemipamoate released came out at 80%. The Derivative (of % of active ingredient released over time) worked out at 0 %/min in data set [1] (time 0 hour); 0.79 %/min in data set [1] (time 0.25 hour); 0.4 %/min in data set [1] (time 0.5 hour); 0.26 %/min in data set [1] (time 0.75 hour); 0.2 %/min in data set [1] (time 1 hour); 0.23 %/min in data set [1] (time 2 hour). For the same compound, the Derivative (of % of active ingredient released over time) in data set [1] (time 4 hour) amounted to 0.25 %/min; in data set [1] (time 6 hour) it was 0.15 %/min; in data set [1] (time 8 hour), 0.07 %/min; in data set [1] (time 12 hour) it was 0.03 %/min; in data set [1] (time 16 hour), 0.01 %/min. For the same compound, the “% of active ingredient released (individual units B1-B6)” value was 0% in data set [1] (time 0 hour); 12% (3×) and 11% (2×) and 13% in data set [1] (time 0.25 hour); 18% (2×) and 17% (2×) and 20% and 16% in data set [1] (time 0.5 hour); 21% (2×) and 22% (2×) and 24% and 20% in data set [1] (time 0.75 hour); 24% and 25% and 26% and 28% and 23% (2×) in data set [1] (time 1 hour); 38% (2×) and 40% (2×) and 43% and 34% in data set [1] (time 2 hour). Moreover, the “% of active ingredient released (individual units B1-B6)” value in data set [1] (time 4 hour) is 64% and 70% (2×) and 71% and 72% and 66%; in data set [1] (time 6 hour), 81% and 89% and 88% and 85% and 91% and 84%; in data set [1] (time 8 hour) it was 89% and 99% and 96% and 94% and 101% and 93%; in data set [1] (time 12 hour) it was 96% and 109% and 102% and 103% and 110% and 101%; in data set [1] (time 16 hour), 98% and 114% (2×) and 104% and 106% and 105%. Also, the “% of active ingredient released, Mean” value in data set [1] (time 0 hour) worked out at 0%; in data set [1] (time 0.25 hour), 12%; in data set [1] (time 0.5 hour) it was 18%; in data set [1] (time 0.75 hour), 22%; in data set [1] (time 1 hour), 25%; in data set [1] (time 2 hour), 39%. Besides, the “% of active ingredient released, Mean” value turned out to be 69% in data set [1] (time 4 hour); 86% in data set [1] (time 6 hour); 95% in data set [1] (time 8 hour); 104% in data set [1] (time 12 hour); 107% in data set [1] (time 16 hour).
`COc1cc2c(cc1OC)CC(=O)N(CCCN(C)C[C@H]1Cc3cc(OC)c(OC)cc31)CC2` [ivabradine hydrochloride, 3-{3-[{[(7S)-3,4-dimethoxybicyclo[4.2.0]octa-1,3,5-trien-7-yl]methyl}-(methyl)amino]propyl}-7,8-dimethoxy-1,3,4,5-tetrahydro-2H-3-benzazepin-2-one]: the “time in which all the salt is released in vitro” value in data set [2] stood at 15 min.
